These results are taken from publication PMC5218480 (PLoS ONE, 2017).

For this experiment, the system named is MV-4-11 cells. The experiment is described as follows: Gene expression microarray analysis (Affymetrix PrimeView) and GSEA. Type of experiment: cell-based, human. Also noted: RFU PODN (11730768_x_at) / Fold change /veh PODN (11730768_x_at) / RFU LINC00158 (11744669_a_at) / Fold change /veh LINC00158 (11744669_a_at) / RFU DUSP10 (11751237_a_at) / Fold change /veh DUSP10 (11751237_a_at) / RFU ID3 (11757404_x_at) / Fold change /veh ID3 (11757404_x_at) / RFU PLEKHG5 (11737974_s_at) / Fold change /veh PLEKHG5 (11737974_s_at) / RFU LRRC4B (11730491_at) / Fold change /veh LRRC4B (11730491_at) / RFU GIMAP4 (11747438_a_at) / Fold change /veh GIMAP4 (11747438_a_at) / RFU KRT8 (11758183_x_at) / Fold change /veh KRT8 (11758183_x_at) / RFU CNN1 (11734310_a_at) / Fold change /veh CNN1 (11734310_a_at) / RFU VPS37D (11726825_at) / Fold change /veh VPS37D (11726825_at) / RFU C10orf10 (11716522_x_at) / Fold change /veh C10orf10 (11716522_x_at) / RFU KIR2DL2 /// KIR2DL4 /// KIR2DL5A /// KIR2DL5B /// KIR2DS1 /// KIR2DS2 /// KIR2DS3 /// KIR2DS4 /// KIR3DL3 /// KIR3DL3 /// KIR3DS1 (11738374_at) / Fold change /veh KIR2DL2 /// KIR2DL4 /// KIR2DL5A /// KIR2DL5B /// KIR2DS1 /// KIR2DS2 /// KIR2DS3 /// KIR2DS4 /// KIR3DL3 /// KIR3DL3 /// KIR3DS1 (11738374_at) / RFU C1QL1 (11718748_at) / Fold change /veh C1QL1 (11718748_at) / RFU TMPRSS4 (11747572_a_at) / Fold change /veh TMPRSS4 (11747572_a_at) / RFU HAMP (11756126_x_at) / Fold change /veh HAMP (11756126_x_at) / RFU RNFT2 (11725882_a_at) / Fold change /veh RNFT2 (11725882_a_at) / RFU NR4A2 (11747474_a_at) / Fold change /veh NR4A2 (11747474_a_at) / RFU ABCC12 (11746883_a_at) / Fold change /veh ABCC12 (11746883_a_at) / RFU TMEM136 (11760407_x_at) / Fold change /veh TMEM136 (11760407_x_at) / RFU CLDN22 /// WWC2 (11732394_at) / Fold change /veh CLDN22 /// WWC2 (11732394_at) / RFU HLA-DPB1 (11760878_x_at) / Fold change /veh HLA-DPB1 (11760878_x_at) / RFU SPINT1 (11716480_a_at) / Fold change /veh SPINT1 (11716480_a_at) / RFU GAP43 (11754022_s_at) / Fold change /veh GAP43 (11754022_s_at) / RFU A4GNT (11735810_at) / Fold change /veh A4GNT (11735810_at) / RFU PRB3 (11715151_x_at) / Fold change /veh PRB3 (11715151_x_at) / RFU TUBB4B (11761932_at) / Fold change /veh TUBB4B (11761932_at) / RFU CAPN14 (11732068_a_at) / Fold change /veh CAPN14 (11732068_a_at) / RFU TMCC2 (11721928_a_at) / Fold change /veh TMCC2 (11721928_a_at) / RFU IRGQ (11745062_a_at) / Fold change /veh IRGQ (11745062_a_at) / RFU FAM174B (11720279_a_at) / Fold change /veh FAM174B (11720279_a_at) / RFU TMPRSS4 (11748680_a_at) / Fold change /veh TMPRSS4 (11748680_a_at) / RFU FAM212B (11763350_a_at) / Fold change /veh FAM212B (11763350_a_at) / RFU PLEKHG5 (11743358_a_at) / Fold change /veh PLEKHG5 (11743358_a_at) / RFU ZSCAN30 (11745921_a_at) / Fold change /veh ZSCAN30 (11745921_a_at) / RFU CMKLR1 (11741424_a_at) / Fold change /veh CMKLR1 (11741424_a_at) / RFU LOC101060620 /// MAPK8IP1 (11723275_at) / Fold change /veh LOC101060620 /// MAPK8IP1 (11723275_at) / RFU SPTSSB (11747773_x_at) / Fold change /veh SPTSSB (11747773_x_at) / RFU PRSS12 (11739890_at) / Fold change /veh PRSS12 (11739890_at) / RFU BIN1 (11741810_x_at) / Fold change /veh BIN1 (11741810_x_at) / RFU WNT11 (11732464_a_at) / Fold change /veh WNT11 (11732464_a_at) / RFU C10orf10 (11716521_a_at) / Fold change /veh C10orf10 (11716521_a_at) / RFU C5orf56 (11738089_at) / Fold change /veh C5orf56 (11738089_at) / RFU CYB561 (11721691_x_at) / Fold change /veh CYB561 (11721691_x_at) / RFU ANKRD19P (11752326_a_at) / Fold change /veh ANKRD19P (11752326_a_at) / RFU OR2T12 /// OR2T33 /// OR2T8 (11738714_s_at) / Fold change /veh OR2T12 /// OR2T33 /// OR2T8 (11738714_s_at) / RFU VCAN (11748164_a_at) / Fold change /veh VCAN (11748164_a_at) / RFU JSRP1 (11732532_at) / Fold change /veh JSRP1 (11732532_at) / RFU KRTAP10-11 (11738290_x_at) / Fold change /veh KRTAP10-11 (11738290_x_at) / RFU MYO3A (11730013_a_at) / Fold change /veh MYO3A (11730013_a_at) / RFU EBF3 (11725865_a_at) / Fold change /veh EBF3 (11725865_a_at) / RFU CAMK2N1 (11719241_x_at) / Fold change /veh CAMK2N1 (11719241_x_at) / RFU C5orf56 (11738088_a_at) / Fold change /veh C5orf56 (11738088_a_at) / RFU OLFML3 (11715873_a_at) / Fold change /veh OLFML3 (11715873_a_at) / RFU LOC100653217 /// NTM (11731650_a_at) / Fold change /veh LOC100653217 /// NTM (11731650_a_at) / RFU MAPK11 (11762145_a_at) / Fold change /veh MAPK11 (11762145_a_at) / RFU FIZ1 (11724087_x_at) / Fold change /veh FIZ1 (11724087_x_at) / RFU OASL (11726364_x_at) / Fold change /veh OASL (11726364_x_at) / RFU SOX15 (11748057_x_at) / Fold change /veh SOX15 (11748057_x_at) / RFU CD79A (11719716_a_at) / Fold change /veh CD79A (11719716_a_at) / RFU HIST1H1D (11736915_at) / Fold change /veh HIST1H1D (11736915_at) / RFU CASKIN2 (11723855_a_at) / Fold change /veh CASKIN2 (11723855_a_at) / RFU LOC730098 (11760151_x_at) / Fold change /veh LOC730098 (11760151_x_at) / RFU OR4N2 (11742367_at) / Fold change /veh OR4N2 (11742367_at) / RFU PRRT2 (11749266_a_at) / Fold change /veh PRRT2 (11749266_a_at) / RFU SNX32 (11753110_a_at) / Fold change /veh SNX32 (11753110_a_at) / RFU CDHR5 (11726645_a_at) / Fold change /veh CDHR5 (11726645_a_at) / RFU RCAN1 (11760418_a_at) / Fold change /veh RCAN1 (11760418_a_at) / RFU FAM167A (11723789_a_at) / Fold change /veh FAM167A (11723789_a_at) / RFU FAM26E (11764081_at) / Fold change /veh FAM26E (11764081_at) / RFU ISYNA1 (11749810_s_at) / Fold change /veh ISYNA1 (11749810_s_at) / RFU ACY1 (11761880_at) / Fold change /veh ACY1 (11761880_at) / RFU 11764098_at / Fold change /veh 11764098_at / RFU SAMD14 (11745864_x_at) / Fold change /veh SAMD14 (11745864_x_at) / RFU NPB (11741838_a_at) / Fold change /veh NPB (11741838_a_at) / RFU TMPRSS6 (11731388_a_at) / Fold change /veh TMPRSS6 (11731388_a_at) / RFU KRTAP10-2 (11738614_at) / Fold change /veh KRTAP10-2 (11738614_at) / RFU ARHGAP8 /// PRR5-ARHGAP8 (11727945_x_at) / Fold change /veh ARHGAP8 /// PRR5-ARHGAP8 (11727945_x_at) / RFU KRTAP5-7 /// NADSYN1 (11734609_at) / Fold change /veh KRTAP5-7 /// NADSYN1 (11734609_at) / RFU RASL12 (11751679_a_at) / Fold change /veh RASL12 (11751679_a_at) / RFU CDKN2B (11736163_a_at) / Fold change /veh CDKN2B (11736163_a_at) / RFU PRF1 (11729649_at) / Fold change /veh PRF1 (11729649_at) / RFU, ZNF638 /// ZNF638-IT1 / Fold change vs veh, ZNF638 /// ZNF638-IT1 / RFU, PANK3 / Fold change vs veh, PANK3 / RFU, SH3YL1 / Fold change vs veh, SH3YL1 / RFU, ZEB2 / Fold change vs veh, ZEB2 / RFU, NRIP1 / Fold change vs veh, NRIP1 / RFU, PTTG1IP / Fold change vs veh, PTTG1IP / RFU, CAPN2 / Fold change vs veh, CAPN2 / RFU, MED14 / Fold change vs veh, MED14 / RFU, SNORA58 / Fold change vs veh, SNORA58 / RFU, C1orf63 / Fold change vs veh, C1orf63 / RFU, LRRFIP1 / Fold change vs veh, LRRFIP1 / RFU, NDUFAF7 / Fold change vs veh, NDUFAF7 / RFU, SLC12A2 / Fold change vs veh, SLC12A2 / RFU, IBTK / Fold change vs veh, IBTK / RFU, ESF1 / Fold change vs veh, ESF1 / Fold change vs veh, TMEM50B / RFU, TAOK1 / Fold change vs veh, TAOK1 / RFU, ACBD3 / Fold change vs veh, ACBD3 / RFU, TMA16 / Fold change vs veh, TMA16 / RFU, RWDD3 / Fold change vs veh, RWDD3 / RFU, BCAT1 / Fold change vs veh, BCAT1 / RFU, EDEM3 / Fold change vs veh, EDEM3 / RFU, TMEM33 / Fold change vs veh, TMEM33 / RFU, WDR75 / Fold change vs veh, WDR75 / RFU, AHCTF1 / Fold change vs veh, AHCTF1 / RFU, TFRC / Fold change vs veh, TFRC / RFU, ZDHHC17 / Fold change vs veh, ZDHHC17 / RFU, NOM1 / Fold change vs veh, NOM1 / RFU, ARL8B / Fold change vs veh, ARL8B / RFU, ZBTB11 / Fold change vs veh, ZBTB11 / RFU, TAMM41 / Fold change vs veh, TAMM41 / RFU, KIAA1704 /// LOC100996395 / Fold change vs veh, KIAA1704 /// LOC100996395 / RFU, ING1 / Fold change vs veh, ING1 / RFU, TRMT61B / Fold change vs veh, TRMT61B / RFU, FUBP3 / Fold change vs veh, FUBP3 / RFU, TP53 / Fold change vs veh, TP53 / RFU, TNKS2 / Fold change vs veh, TNKS2 / RFU, ZFP14 / Fold change vs veh, ZFP14 / RFU, ACTR2 / Fold change vs veh, ACTR2 / RFU, PPP3R1 / Fold change vs veh, PPP3R1 / RFU, PIK3R1 / Fold change vs veh, PIK3R1 / RFU, HNRNPA1 / Fold change vs veh, HNRNPA1 / RFU, RNF170 / Fold change vs veh, RNF170 / RFU, ZNF28 / Fold change vs veh, ZNF28 / RFU, RNGTT / Fold change vs veh, RNGTT / RFU, OGT / Fold change vs veh, OGT / RFU, BRD1 / Fold change vs veh, BRD1 / RFU, MARS / Fold change vs veh, MARS / RFU, ZNF655 / Fold change vs veh, ZNF655 / RFU, FAHD1 / Fold change vs veh, FAHD1 / RFU, BDP1 / Fold change vs veh, BDP1 / RFU, LRRCC1 / Fold change vs veh, LRRCC1 / RFU, ARID1A / Fold change vs veh, ARID1A / RFU, ZNF146 / Fold change vs veh, ZNF146 / RFU, ZNF330 / Fold change vs veh, ZNF330 / RFU, GPN3 / Fold change vs veh, GPN3 / RFU, C9orf123 / Fold change vs veh, C9orf123 / RFU, N4BP2L2 / Fold change vs veh, N4BP2L2 / RFU, ARFIP1 / Fold change vs veh, ARFIP1 / RFU, FAM179B / Fold change vs veh, FAM179B / RFU, BCL10 / Fold change vs veh, BCL10 / RFU, UHRF1BP1L / Fold change vs veh, UHRF1BP1L / RFU, BET1 / Fold change vs veh, BET1 / RFU, CNOT2 / Fold change vs veh, CNOT2 / RFU, ZNF268 / Fold change vs veh, ZNF268 / Fold change vs veh, ZNF507 / RFU, DGCR2 / Fold change vs veh, DGCR2 / RFU, WDSUB1 / Fold change vs veh, WDSUB1 / Fold change vs veh, HSP90B1 /// MIR3652 / RFU, ADSS / Fold change vs veh, ADSS / RFU, GK / Fold change vs veh, GK / RFU, ZNF148 / Fold change vs veh, ZNF148 / RFU, TAF9 / Fold change vs veh, TAF9 / RFU, SLC1A5 / Fold change vs veh, SLC1A5 / RFU, SLMO2 / Fold change vs veh, SLMO2 / RFU, ABCC4 / Fold change vs veh, ABCC4 / RFU, LOC101060439 /// RAP1B / Fold change vs veh, LOC101060439 /// RAP1B / RFU, RFX7 / Fold change vs veh, RFX7 / RFU, GTPBP10 / Fold change vs veh, GTPBP10 / RFU, CNEP1R1 / Fold change vs veh, CNEP1R1 / RFU, BIVM-ERCC5 /// ERCC5 / Fold change vs veh, BIVM-ERCC5 /// ERCC5 / RFU, ILF3 / Fold change vs veh, ILF3 / RFU 11762660_at / Fold change /veh 11762660_at / RFU VCAN (11757783_s_at) / Fold change /veh VCAN (11757783_s_at) / RFU DDX43 (11728927_at) / Fold change /veh DDX43 (11728927_at) / RFU KRT8 (11758188_x_at) / Fold change /veh KRT8 (11758188_x_at) / RFU NKD1 (11759106_at) / Fold change /veh NKD1 (11759106_at) / RFU SRD5A1 (11742802_a_at) / Fold change /veh SRD5A1 (11742802_a_at) / RFU TPSAB1 /// TPSB2 (11721975_s_at) / Fold change /veh TPSAB1 /// TPSB2 (11721975_s_at) / RFU GSTM3 (11746129_a_at) / Fold change /veh GSTM3 (11746129_a_at) / RFU IL23R (11737362_x_at) / Fold change /veh IL23R (11737362_x_at) / RFU TMEM51 (11727254_a_at) / Fold change /veh TMEM51 (11727254_a_at) / RFU PIWIL2 (11732686_x_at) / Fold change /veh PIWIL2 (11732686_x_at) / RFU ORM1 (11744905_x_at) / Fold change /veh ORM1 (11744905_x_at) / RFU CCDC152 (11743942_at) / Fold change /veh CCDC152 (11743942_at) / RFU ECM1 (11717891_a_at) / Fold change /veh ECM1 (11717891_a_at) / RFU IL23R (11748794_a_at) / Fold change /veh IL23R (11748794_a_at) / RFU TNFAIP8L3 (11732012_x_at) / Fold change /veh TNFAIP8L3 (11732012_x_at) / RFU MBOAT4 (11741988_at) / Fold change /veh MBOAT4 (11741988_at) / RFU 11764193_at / Fold change /veh 11764193_at / RFU TMEM53 (11763286_at) / Fold change /veh TMEM53 (11763286_at) / RFU MAGEB2 (11727129_at) / Fold change /veh MAGEB2 (11727129_at) / RFU TMEM200A (11744735_a_at) / Fold change /veh TMEM200A (11744735_a_at) / RFU CCDC152 (11751479_a_at) / Fold change /veh CCDC152 (11751479_a_at) / RFU FAM211A (11726209_a_at) / Fold change /veh FAM211A (11726209_a_at) / RFU RGS16 (11746705_a_at) / Fold change /veh RGS16 (11746705_a_at) / RFU VCAN (11755009_s_at) / Fold change /veh VCAN (11755009_s_at) / RFU RHOB (11743442_s_at) / Fold change /veh RHOB (11743442_s_at) / RFU RGS16 (11720943_a_at) / Fold change /veh RGS16 (11720943_a_at) / RFU RGS16 (11720944_at) / Fold change /veh RGS16 (11720944_at) / RFU, VPS4B / Fold change vs veh, VPS4B / RFU, CREB1 / Fold change vs veh, CREB1 / RFU, DNAJC13 / Fold change vs veh, DNAJC13 / RFU, GNAQ / Fold change vs veh, GNAQ / RFU, CDK5R1 / Fold change vs veh, CDK5R1 / RFU, ZRANB3 / Fold change vs veh, ZRANB3 / RFU, CUL4A / Fold change vs veh, CUL4A / RFU, CCNY / Fold change vs veh, CCNY / RFU, UFL1 / Fold change vs veh, UFL1 / RFU, COG3 / Fold change vs veh, COG3 / RFU, DIAPH2 / Fold change vs veh, DIAPH2 / RFU, SKA2 / Fold change vs veh, SKA2 / RFU, AFF3 / Fold change vs veh, AFF3 / RFU, LMF1 / Fold change vs veh, LMF1 / RFU, IPO11 / Fold change vs veh, IPO11 / RFU, DFFB / Fold change vs veh, DFFB / RFU, FOXP1 / Fold change vs veh, FOXP1 / RFU, CARD8 / Fold change vs veh, CARD8 / RFU, STRN3 / Fold change vs veh, STRN3 / RFU, ADK / Fold change vs veh, ADK / RFU, RASSF2 / Fold change vs veh, RASSF2 / RFU, WIPF1 / Fold change vs veh, WIPF1 / RFU, LARP1B / Fold change vs veh, LARP1B / RFU, RASA1 / Fold change vs veh, RASA1 / RFU, RB1 / Fold change vs veh, RB1 / RFU, PPFIA1 / Fold change vs veh, PPFIA1 / RFU, MAT2A / Fold change vs veh, MAT2A / RFU, CCT5 / Fold change vs veh, CCT5 / RFU, WDR92 / Fold change vs veh, WDR92 / RFU, CUX1 / Fold change vs veh, CUX1 / RFU, TTC7A / Fold change vs veh, TTC7A / RFU, TMEM135 / Fold change vs veh, TMEM135 / RFU, DEPTOR / Fold change vs veh, DEPTOR / RFU, CPM / Fold change vs veh, CPM / RFU, DNAJB6 / Fold change vs veh, DNAJB6 / RFU, CACNA2D3 / Fold change vs veh, CACNA2D3 / RFU, DTX4 / Fold change vs veh, DTX4 / RFU, TFCP2 / Fold change vs veh, TFCP2 / RFU, GMCL1 /// GMCL1P1 / Fold change vs veh, GMCL1 /// GMCL1P1 / RFU, AEBP2 / Fold change vs veh, AEBP2 / RFU, SNHG1 /// SNORD22 /// SNORD25 /// SNORD26 /// SNORD27 /// SNORD28 /// SNORD29 /// SNORD31 / Fold change vs veh, SNHG1 /// SNORD22 /// SNORD25 /// SNORD26 /// SNORD27 /// SNORD28 /// SNORD29 /// SNORD31 / Fold change (Aza/veh), C12orf56 (ProbeSet 11735607_a_at) / Fold change (ACY-1035/veh), C12orf56 (ProbeSet 11735607_a_at) / Fold change (Aza/veh), FGFR1OP (ProbeSet 11751329_s_at) / Fold change (ACY-1035/veh), FGFR1OP (ProbeSet 11751329_s_at) / Fold change (Aza/veh), VPS36 (ProbeSet 11739960_a_at) / Fold change (ACY-1035/veh), VPS36 (ProbeSet 11739960_a_at) / RFU SYPL1 (11715823_x_at) / Fold change /veh SYPL1 (11715823_x_at) / RFU IGFBP7 (11715501_s_at) / Fold change /veh IGFBP7 (11715501_s_at) / RFU REEP3 (11722064_at) / Fold change /veh REEP3 (11722064_at) / RFU IGLL1 (11728026_x_at) / Fold change /veh IGLL1 (11728026_x_at): dose or concentration left out as unconfirmed. Particulars: MV-4-11 cells, 48 hours.

For the compound `Nc1ncn([C@@H]2O[C@H](CO)[C@@H](O)[C@H]2O)c(=O)n1` [azacitidine], the “RFU TNFAIP8L3 (11732012_x_at)” value came to 9.37 RFU.
